Assay results reported in ChEMBL document CHEMBL1201862, “PubChem BioAssay data set” (2004).
Activity calls are given as the source filed them.

Columns and labels:
[1] = biological target: T1, Replicative DNA helicase DnaB (Mycobacterium tuberculosis, UniProt P9WMR3); test: DnaB intein splicing inhibitors, dose response, biochemical, cell-free fluorescence (AID 449749); format: functional
T1 sequence (P9WMR3 whole entry): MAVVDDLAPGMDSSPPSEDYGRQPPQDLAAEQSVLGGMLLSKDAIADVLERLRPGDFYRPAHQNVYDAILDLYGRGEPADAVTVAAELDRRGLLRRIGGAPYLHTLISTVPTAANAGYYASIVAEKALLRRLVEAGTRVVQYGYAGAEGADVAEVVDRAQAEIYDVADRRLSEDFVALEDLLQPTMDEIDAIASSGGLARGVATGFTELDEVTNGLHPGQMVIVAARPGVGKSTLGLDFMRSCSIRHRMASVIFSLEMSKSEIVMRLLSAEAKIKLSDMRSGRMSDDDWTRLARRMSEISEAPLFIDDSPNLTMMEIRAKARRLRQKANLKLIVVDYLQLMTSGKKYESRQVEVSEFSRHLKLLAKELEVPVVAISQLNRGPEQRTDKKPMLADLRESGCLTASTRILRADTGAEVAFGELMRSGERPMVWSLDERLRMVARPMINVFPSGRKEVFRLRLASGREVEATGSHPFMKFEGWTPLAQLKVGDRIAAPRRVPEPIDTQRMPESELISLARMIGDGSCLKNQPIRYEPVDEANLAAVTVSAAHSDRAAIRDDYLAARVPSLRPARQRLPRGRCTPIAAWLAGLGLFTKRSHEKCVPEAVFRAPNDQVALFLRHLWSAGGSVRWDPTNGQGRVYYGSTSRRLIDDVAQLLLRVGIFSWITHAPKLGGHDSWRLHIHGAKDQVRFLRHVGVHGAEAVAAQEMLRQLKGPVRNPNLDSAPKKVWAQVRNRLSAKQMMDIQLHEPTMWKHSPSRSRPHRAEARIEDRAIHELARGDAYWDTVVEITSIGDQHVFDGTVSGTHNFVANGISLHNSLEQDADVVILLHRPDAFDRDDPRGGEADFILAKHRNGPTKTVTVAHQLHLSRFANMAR

[2] = biological target: Heat shock protein HSP 90-alpha (Homo sapiens, UniProt P07900); test: Luminescence-based dose response biochemical high throughput screening assay for inhibitors of the Heat Shock Protein 90 (HSP90). [Related pubchem assays: 1831 (Summary AID.), 1846 (Confirmation screen.), 1789 (Primary screen.)]
Protein skinhead-1 = biological target: T2, Protein skinhead-1 (Caenorhabditis elegans, UniProt P34707); format: functional
T2 sequence (P34707 whole entry): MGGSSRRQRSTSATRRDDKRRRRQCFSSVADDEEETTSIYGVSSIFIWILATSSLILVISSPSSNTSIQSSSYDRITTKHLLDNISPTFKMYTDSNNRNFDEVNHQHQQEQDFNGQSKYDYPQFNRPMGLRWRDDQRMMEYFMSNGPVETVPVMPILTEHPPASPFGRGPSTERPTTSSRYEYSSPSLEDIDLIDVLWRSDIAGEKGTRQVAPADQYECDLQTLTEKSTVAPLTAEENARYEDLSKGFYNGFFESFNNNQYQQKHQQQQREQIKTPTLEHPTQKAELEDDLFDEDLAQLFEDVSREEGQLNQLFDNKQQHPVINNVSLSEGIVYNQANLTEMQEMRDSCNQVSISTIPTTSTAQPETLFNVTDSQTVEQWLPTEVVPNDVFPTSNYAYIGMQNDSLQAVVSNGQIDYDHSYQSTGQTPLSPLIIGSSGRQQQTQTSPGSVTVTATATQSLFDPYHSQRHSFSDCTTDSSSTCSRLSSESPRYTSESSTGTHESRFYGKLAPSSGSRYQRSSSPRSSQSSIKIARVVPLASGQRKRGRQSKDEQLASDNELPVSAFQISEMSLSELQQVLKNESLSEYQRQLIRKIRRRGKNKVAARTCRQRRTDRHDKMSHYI

[3] = biological target: T3, Histone-lysine N-methyltransferase NSD2 (Homo sapiens, UniProt O96028); format: biochemical
T3 sequence (O96028 whole entry): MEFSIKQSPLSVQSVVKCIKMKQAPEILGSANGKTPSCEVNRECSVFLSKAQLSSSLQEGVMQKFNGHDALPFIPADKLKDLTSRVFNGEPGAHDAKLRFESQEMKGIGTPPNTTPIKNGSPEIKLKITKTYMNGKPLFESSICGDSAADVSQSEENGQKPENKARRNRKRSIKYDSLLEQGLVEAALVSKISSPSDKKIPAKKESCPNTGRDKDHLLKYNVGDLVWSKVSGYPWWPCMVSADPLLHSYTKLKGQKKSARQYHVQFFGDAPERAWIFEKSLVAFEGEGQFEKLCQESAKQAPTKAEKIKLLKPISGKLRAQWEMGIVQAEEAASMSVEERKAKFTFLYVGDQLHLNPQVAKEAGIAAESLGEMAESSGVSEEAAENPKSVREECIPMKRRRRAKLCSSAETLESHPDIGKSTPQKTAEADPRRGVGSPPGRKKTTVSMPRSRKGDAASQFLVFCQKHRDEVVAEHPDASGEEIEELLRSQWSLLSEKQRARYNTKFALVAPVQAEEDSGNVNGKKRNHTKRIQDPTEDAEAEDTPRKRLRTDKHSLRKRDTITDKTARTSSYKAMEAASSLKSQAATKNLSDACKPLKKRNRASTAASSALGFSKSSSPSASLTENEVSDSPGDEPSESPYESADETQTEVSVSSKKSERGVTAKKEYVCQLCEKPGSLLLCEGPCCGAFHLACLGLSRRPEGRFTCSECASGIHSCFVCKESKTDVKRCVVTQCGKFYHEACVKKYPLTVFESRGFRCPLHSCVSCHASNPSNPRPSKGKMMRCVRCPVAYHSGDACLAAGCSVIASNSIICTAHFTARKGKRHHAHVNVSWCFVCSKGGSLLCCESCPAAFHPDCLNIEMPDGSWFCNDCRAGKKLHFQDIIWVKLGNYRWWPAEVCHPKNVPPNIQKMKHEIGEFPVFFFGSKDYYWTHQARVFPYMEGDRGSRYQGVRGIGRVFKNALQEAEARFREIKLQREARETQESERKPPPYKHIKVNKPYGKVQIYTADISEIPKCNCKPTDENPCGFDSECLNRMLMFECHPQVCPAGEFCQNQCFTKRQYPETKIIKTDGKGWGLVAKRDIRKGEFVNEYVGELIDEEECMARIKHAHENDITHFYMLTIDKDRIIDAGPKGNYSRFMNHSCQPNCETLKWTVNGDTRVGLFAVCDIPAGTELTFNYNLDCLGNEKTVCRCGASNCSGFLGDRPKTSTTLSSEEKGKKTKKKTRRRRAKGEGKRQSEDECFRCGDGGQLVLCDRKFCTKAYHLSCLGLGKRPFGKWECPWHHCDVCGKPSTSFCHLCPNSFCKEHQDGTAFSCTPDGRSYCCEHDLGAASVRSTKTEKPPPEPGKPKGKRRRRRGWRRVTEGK

[4] = biological target: Mitochondrial peptide methionine sulfoxide reductase (Bos taurus, UniProt P54149); format: functional;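 note: absorbance read-out, biochemical high-throughput dose-response screen for MsrA inhibitors, confirmatory; recombinant bovine MsrA coupled to E. coli TrxB with NADPH and selenocystamine; potency is for inhibitors of MsrA activity on DMSO substrate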
Sequence of Mitochondrial peptide methionine sulfoxide reductase (P54149 whole entry): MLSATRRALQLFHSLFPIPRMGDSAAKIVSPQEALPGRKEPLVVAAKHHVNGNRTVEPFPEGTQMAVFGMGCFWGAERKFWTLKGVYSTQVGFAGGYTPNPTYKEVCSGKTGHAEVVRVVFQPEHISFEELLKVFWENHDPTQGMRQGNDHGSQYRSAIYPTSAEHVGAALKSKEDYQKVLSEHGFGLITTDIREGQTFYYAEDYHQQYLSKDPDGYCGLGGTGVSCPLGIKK

Structure (SMILES)	AC50 [1]	IC50 [2]	IC50 (Protein skinhead-1)	AC50 [3]	IC50 [4]
COC(=O)C[C@]1(C(=O)OC)CN(C#N)N(c2ccc(Cl)cc2)C12c1ccccc1-c1ccccc12	1.83 µM (active)	3.75 µM (active)	–	–	–
O=C(Nc1ccc(C#Cc2ccccc2)cc1)C1CC1	–	–	> 100 µM (inactive)	–	–
CCCCn1c(NC(=O)c2ccco2)c(C(=O)OCC)c2nc3ccccc3nc21	–	–	–	2.94 µM (active)	–
Cc1ccccc1NC1=C/C(=N\S(=O)(=O)c2ccc(C(=O)O)cc2)c2ccccc2C1=O	105 µM (active)	0.522 µM (active)	–	0.117 µM (active)	62.4 µM (inactive)
Cc1ccc(NC2=C/C(=N/S(=O)(=O)c3cccs3)c3ccccc3C2=O)cc1	0.301 µM (active)	–	–	–	425 µM (inactive)
COc1ccc(-c2cc(-c3ccc(C)cc3)[nH]n2)c(O)c1	–	–	> 100 µM (inactive)	–	–
